Source: patent US9598387B2 (Southern Research Institute, priority 2012, dated 2017)

Experiments:
[1] = target: human D2-long dopamine receptor (Homo sapiens (Human), UniProt P14416); experiment: Radioligand binding (125I-IABN competition), D2; settings: HEK cell membranes expressing human D2-long
Description: The affinities of the target compounds were determined using radioligand binding experiments. […] Competition curves were modeled for a single site. Data from competition dose-response curves were analyzed using Tablecurve program (Jandel). IC50 values were converted to equilibrium dissociation constants (Ki values) using the Cheng and Prusoff correction.

Long Evans rats = experiment: Spontaneous locomotor activity; assay type: in vivo, rat; settings: 10 minutes prior to placement in chambers
Description: These studies were performed using Long Evans rats using standard protocols. Locomotor activity chambers measuring 43×43×30 cm (l×w×h) were used for the locomotor activity experiments. Each chamber was equipped with eight photo-emitters positioned along the length of the chamber 6 cm above the floor, each paired directly opposite a photocell. Locomotor activity counts were registered when adjacent beams were broken consecutively. Before receiving any drug, the animals (n=96) were placed in locomotor activity chambers for habituation, for 2 hours per day for 3 consecutive days. Based on the locomotor activity score obtained during the third habituation session, animals were assigned into one of […] treatment groups. […] For the 113 alone experiments, each of the four groups received one of 4 doses of 113 (0, 3.75, 7.5 or 15 mg/kg) 10 minutes prior to placement in the activity chambers. For the 113 cocaine interaction experiments, each of 4 groups were injected with one of the 4 doses of the compound (0, 3.75, 7.5 or 15 mg/kg) 10 minutes before receiving 10 mg/kg of cocaine as the second injection. […] The locomotor counts in the 113 alone and 113/cocaine experiments were analyzed using two separate mixed-design ANOVAs with 113 dose (between-groups) and 5-min bins (repeated measures) as factors. […]

Chain of human D2-long dopamine receptor (P14416 whole entry): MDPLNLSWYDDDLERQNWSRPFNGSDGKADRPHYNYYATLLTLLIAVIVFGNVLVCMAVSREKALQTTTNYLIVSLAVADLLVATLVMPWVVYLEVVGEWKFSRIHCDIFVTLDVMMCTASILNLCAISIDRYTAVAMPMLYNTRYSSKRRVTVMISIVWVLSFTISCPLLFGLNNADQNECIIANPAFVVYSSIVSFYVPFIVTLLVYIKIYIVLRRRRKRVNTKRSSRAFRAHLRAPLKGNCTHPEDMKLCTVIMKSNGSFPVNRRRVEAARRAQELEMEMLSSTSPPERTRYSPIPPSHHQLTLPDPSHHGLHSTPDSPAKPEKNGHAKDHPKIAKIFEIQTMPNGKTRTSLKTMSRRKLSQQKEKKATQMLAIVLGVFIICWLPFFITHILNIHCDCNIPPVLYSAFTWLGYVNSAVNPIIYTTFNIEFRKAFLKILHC

Ki [1]: 511 ± 65.6 nM
SMILES: CC(C)(C)c1nc(N2CCN(CCCCNC(=O)c3cn4ccccc4n3)CC2)cc(C(F)(F)F)n1 [Compound 113, N-(4-(4-(2-(tert-Butyl)-6-(trifluoromethyl)pyrimidin-4-yl)piperazin-1-yl)butyl)imidazo[1,2-a]pyridine-2-carboxamide]
spontaneous locomotor activity (Long Evans rats; 3.75 mg dose): had no effect on spontaneous locomotor activity | spontaneous locomotor activity (Long Evans rats; 7.5 and 15 mg doses): appeared to reduce locomotor activity in the first 5 minutes of testing but did not affect activity after that
